Measurements from patent US8895585B2, “Nicotinamide derivative or salt thereof” (FUJIFILM Corporation, priority 2010, dated 2014).

Tests used:
[1] = target: T1, glutathione S-transferase (GST)-fused full-length human Syk protein (Homo sapiens, UniProt P43405); assay: Syk enzyme assay; format: biochemical; details: Syk enzyme assay, Test Example 1; read-out: IC50 of Syk-inhibitory activity
T1 construct: (GST)-fused full-length human Syk protein; GST (glutathione S-transferase); purchased Carna Biosciences
Outline: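 IC50 values come from a time-resolved FRET readout (615 and 665 nm) of substrate phosphorylation, measured after an EDTA stop and 1 h antibody binding. The kinase reaction ran 40 min at room temperature with 27 μM ATP and 0.4 μM biotin-peptide, following a 15 min compound preincubation with baculovirus-made GST-full-length human Syk.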

THP-1 cells = assay: TNFα generation assay; format: cell-based, human; details: Homo sapiens, THP-1, THP-1 cells; Table 22; read-out: IC50 in TNFα generation assay
Outline: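 THP-1 cells differentiated to macrophage-like cells with 10 ng/ml IFN-γ for 2 days, preincubated with compound 30 min at room temperature, then cultured 7 h on plates coated with human IgG (10 μg/ml). Secreted TNFα measured by ELISA or AlphaLISA.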

SMILES | IC50 [1] | IC50 (THP-1 cells)
C=C(C)C[C@@H](Nc1nc(Nc2ccc3ncccc3c2)c(C(N)=O)cc1F)[C@H](C)N [Example 006-396, 6-(((2S,3R)-2-amino-5-methylhex-5-en-3-yl)amino)-5-fluoro-2-(quinolin-6-ylamino)nicotinamide] | < 10 nM | 65 to 130 nM
C=C(C)C[C@@H](Nc1nc(Nc2ccc3c(cnn3CC)c2)c(C(N)=O)cc1F)[C@H](C)N [Example 006-397, 6-(((2S,3R)-2-amino-5-methylhex-5-en-3-yl)amino)-2-((1-ethyl-1H-indazol-5-yl)amino)-5-fluoronicotinamide] | < 10 nM | < 65 nM
CCC[C@@H](Nc1nc(Nc2ccc3c(cnn3C)c2)c(C(N)=O)cc1F)[C@@H](N)CC [Example 006-398, 6-(((3S,4R)-3-aminoheptan-4-yl)amino)-5-fluoro-2-((1-methyl-1H-indazol-5-yl)amino)nicotinamide] | < 10 nM | 65 to 130 nM
CCC[C@@H](Nc1nc(Nc2ccc3c(cnn3CCOC)c2)c(C(N)=O)cc1F)[C@@H](N)CC [Example 006-400, 6-(((3S,4R)-3-aminoheptan-4-yl)amino)-5-fluoro-2-((1-(2-methoxyethyl)-1H-indazol-5-yl)amino)nicotinamide] | < 10 nM | < 65 nM
CCC[C@@H](Nc1nc(Nc2ccnc(OCCOC)c2)c(C(N)=O)cc1F)[C@@H](N)CC [Example 006-401, 6-(((3S,4R)-3-aminoheptan-4-yl)amino)-5-fluoro-2-((2-(2-methoxyethoxy)pyridin-4-yl)amino)nicotinamide] | 10 to 50 nM | 130 to 200 nM
CCC[C@@H](Nc1nc(Nc2cncc(C3CC3)c2)c(C(N)=O)cc1F)[C@@H](N)CC [Example 006-402, 6-(((3S,4R)-3-aminoheptan-4-yl)amino)-2-((5-cyclopropylpyridin-3-yl)amino)-5-fluoronicotinamide] | < 10 nM | 130 to 200 nM
CCC[C@@H](Nc1nc(Nc2cnc(C)c(-n3nccn3)c2)c(C(N)=O)cc1F)[C@@H](N)CC [Example 006-403, 6-(((3S,4R)-3-aminoheptan-4-yl)amino)-5-fluoro-2-((6-methyl-5-(2H-1,2,3-triazol-2-yl)pyridin-3-yl)amino)nicotinamide] | 10 to 50 nM | 130 to 200 nM
CCC[C@@H](Nc1nc(Nc2ccnc(OC)c2)c(C(N)=O)cc1F)[C@@H](N)CC [Example 006-404, 6-(((3S,4R)-3-aminoheptan-4-yl)amino)-5-fluoro-2-((2-methoxypyridin-4-yl)amino)nicotinamide] | < 10 nM | 130 to 200 nM
CCCC[C@@H](Nc1nc(Nc2cc(OC)nc(OC)c2)c(C(N)=O)cc1F)[C@H](C)N [Example 006-405, 6-(((2S,3R)-2-aminoheptan-3-yl)amino)-2-((2,6-dimethoxypyridin-4-yl)amino)-5-fluoronicotinamide] | < 10 nM | 130 to 200 nM
CCCC[C@@H](Nc1nc(Nc2ccnc(OC)c2)c(C(N)=O)cc1F)[C@H](C)N [Example 006-406, 6-(((2S,3R)-2-aminoheptan-3-yl)amino)-5-fluoro-2-((2-methoxypyridin-4-yl)amino)nicotinamide] | < 10 nM | 65 to 130 nM
CCCC[C@@H](Nc1nc(Nc2ccnc(OCCOC)c2)c(C(N)=O)cc1F)[C@H](C)N [Example 006-407, 6-(((2S,3R)-2-aminoheptan-3-yl)amino)-5-fluoro-2-((2-(2-methoxyethoxy)pyridin-4-yl)amino)nicotinamide] | < 10 nM | 130 to 200 nM
COc1cc(Nc2nc(N[C@H](CC(C)C)[C@H](C)N)c(F)cc2C(N)=O)cc(OC)n1 [Example 006-409, 6-(((2S,3R)-2-amino-5-methylhexan-3-yl)amino)-2-((2,6-dimethoxypyridin-4-yl)amino)-5-fluoronicotinamide] | < 10 nM | 130 to 200 nM
COc1cc(Nc2nc(N[C@H](CC(C)C)[C@H](C)N)c(F)cc2C(N)=O)ccn1 [Example 006-410, 6-(((2S,3R)-2-amino-5-methylhexan-3-yl)amino)-5-fluoro-2-((2-methoxypyridin-4-yl)amino)nicotinamide] | < 10 nM | 65 to 130 nM
COCCOc1cc(Nc2nc(N[C@H](CC(C)C)[C@H](C)N)c(F)cc2C(N)=O)ccn1 [Example 006-411, 6-(((2S,3R)-2-amino-5-methylhexan-3-yl)amino)-5-fluoro-2-((2-(2-methoxyethoxy)pyridin-4-yl)amino)nicotinamide] | < 10 nM | 130 to 200 nM
CCCC[C@H](CN)Nc1nc(Nc2ccc3c(cnn3CCF)c2)c(C(N)=O)cc1F [Example 006-414, (R)-6-((1-aminohexan-2-yl)amino)-5-fluoro-2-((1-(2-fluoroethyl)-1H-indazol-5-yl)amino)nicotinamide] | < 10 nM | 65 to 130 nM
CC(C)C[C@H](CN)Nc1nc(Nc2ccc3c(cnn3CCF)c2)c(C(N)=O)cc1F [Example 006-415, (R)-6-((1-amino-4-methylpentan-2-yl)amino)-5-fluoro-2-((1-(2-fluoroethyl)-1H-indazol-5-yl)amino)nicotinamide] | < 10 nM | 65 to 130 nM
CC[C@@H](Nc1nc(Nc2ccc3c(cnn3CCF)c2)c(C(N)=O)cc1F)[C@H](C)N [Example 006-416, 6-(((2S,3R)-2-aminopentan-3-yl)amino)-5-fluoro-2-((1-(2-fluoroethyl)-1H-indazol-5-yl)amino)nicotinamide] | < 10 nM | 65 to 130 nM
CCC[C@@H](Nc1nc(Nc2ccc3c(cnn3CCF)c2)c(C(N)=O)cc1F)[C@H](C)N [Example 006-417, 6-(((2S,3R)-2-aminohexan-3-yl)amino)-5-fluoro-2-((1-(2-fluoroethyl)-1H-indazol-5-yl)amino)nicotinamide] | < 10 nM | 65 to 130 nM
CCCC[C@@H](Nc1nc(Nc2ccc3c(cnn3CCF)c2)c(C(N)=O)cc1F)[C@H](C)N [Example 006-418, 6-(((2S,3R)-2-aminoheptan-3-yl)amino)-5-fluoro-2-((1-(2-fluoroethyl)-1H-indazol-5-yl)amino)nicotinamide] | < 10 nM | 65 to 130 nM
COc1nccc(Nc2nc(N[C@@H]3CCCC[C@@H]3N)c(F)cc2C(N)=O)c1F [Example 006-432, 6-(((1R,2S)-2-aminocyclohexyl)amino)-5-fluoro-2-((3-fluoro-2-methoxypyridin-4-yl)amino)nicotinamide] | 10 to 50 nM | 65 to 130 nM

Now from value to molecule:

IC50 [1] | IC50 (THP-1 cells) | SMILES
< 10 nM | 130 to 200 nM | CCCC[C@@H](Nc1nc(Nc2cncc(C3CC3)c2)c(C(N)=O)cc1F)[C@H](C)N [Example 006-408, 6-(((2S,3R)-2-aminoheptan-3-yl)amino)-2-((5-cyclopropylpyridin-3-yl)amino)-5-fluoronicotinamide]
< 10 nM | 130 to 200 nM | CC(C)C[C@@H](Nc1nc(Nc2cncc(C3CC3)c2)c(C(N)=O)cc1F)[C@H](C)N [Example 006-412, 6-(((2S,3R)-2-amino-5-methylhexan-3-yl)amino)-2-((5-cyclopropylpyridin-3-yl)amino)-5-fluoronicotinamide]
< 10 nM | 65 to 130 nM | C[C@H](N)[C@@H](CC1CC1)Nc1nc(Nc2ccc3c(cnn3CCF)c2)c(C(N)=O)cc1F [Example 006-420, 6-(((2R,3S)-3-amino-1-cyclopropylbutan-2-yl)amino)-5-fluoro-2-((1-(2-fluoroethyl)-1H-indazol-5-yl)amino)nicotinamide]
< 10 nM | 65 to 130 nM | COc1cc(Nc2nc(N[C@H](C3CC3)[C@H](C)N)c(F)cc2C(N)=O)cc(OC)n1 [Example 006-429, 6-(((1R,2S)-2-amino-1-cyclopropylpropyl)amino)-2-((2,6-dimethoxypyridin-4-yl)amino)-5-fluoronicotinamide]
< 10 nM | 65 to 130 nM | COc1cc(Nc2nc(N[C@H](C3CC3)[C@H](C)N)c(F)cc2C(N)=O)ccn1 [Example 006-430, 6-(((1R,2S)-2-amino-1-cyclopropylpropyl)amino)-5-fluoro-2-((2-methoxypyridin-4-yl)amino)nicotinamide]
10 to 50 nM | 65 to 130 nM | COCCOc1cc(Nc2nc(N[C@H](C3CC3)[C@H](C)N)c(F)cc2C(N)=O)ccn1 [Example 006-431, 6-(((1R,2S)-2-amino-1-cyclopropylpropyl)amino)-5-fluoro-2-((2-(2-methoxyethoxy)pyridin-4-yl)amino)nicotinamide]
50 to 100 nM | < 65 nM | Cc1cc(Nc2nc(N[C@H](C3CC3)[C@H](C)N)c(F)cc2C(N)=O)cnc1C [Example 006-434, 6-(((1R,2S)-2-amino-1-cyclopropylpropyl)amino)-2-((5,6-dimethylpyridin-3-yl)amino)-5-fluoronicotinamide]
< 10 nM | 65 to 130 nM | Cc1cc(Nc2nc(N[C@H](CC3CC3)[C@H](C)N)c(F)cc2C(N)=O)cnc1C [Example 006-435, 6-(((2R,3S)-3-amino-1-cyclopropylbutan-2-yl)amino)-2-((5,6-dimethylpyridin-3-yl)amino)-5-fluoronicotinamide]
< 10 nM | < 65 nM | Cc1nn(C)c2ccc(Nc3nc(N[C@H](CC4CC4)[C@H](C)N)c(F)cc3C(N)=O)cc12 [Example 006-442, 6-(((2R,3S)-3-amino-1-cyclopropylbutan-2-yl)amino)-2-((1,3-dimethyl-1H-indazol-5-yl)amino)-5-fluoronicotinamide]
< 10 nM | 65 to 130 nM | CCn1nc(C)c2cc(Nc3nc(N[C@H](CC4CC4)[C@H](C)N)c(F)cc3C(N)=O)ccc21 [Example 006-443, 6-(((2R,3S)-3-amino-1-cyclopropylbutan-2-yl)amino)-2-((1-ethyl-3-methyl-1H-indazol-5-yl)amino)-5-fluoronicotinamide]
